Experimental data taken from patent publication US7118895B2, “Process for producing aglycon by using diglycosidase and flavor-improved food containing the aglycon and converting agent to be used in the process” (Amano Enzyme Inc., priority 2000, dated 2006).

Legend:
Crude diglycosidase = test: Examination of temperature in the conversion into isoflavone aglycons by diglycosidase using soybean materials; format: biochemical, Penicillium multicolor IAM7153; set-up: Decomposition efficiency of glycitin family in roasted soy flour / Decomposition efficiency of daidzin family in roasted soy flour / Decomposition efficiency of genistin family in soymilk / Decomposition efficiency of daidzin family in soymilk / Decomposition efficiency of glycitin family in defatted soybean / Decomposition efficiency of daidzin family in defatted soybean: concentration or dose not given beside the values
In short: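 Temperature series (30-80° C.) of crude diglycosidase, diluted to 1.88 AU/mL in 20 mM acetate pH 4.0, acting on roasted soy flour, soymilk, defatted soybean or soy protein concentrate. Samples quenched with ethanol after 0-6 h, centrifuged, filtered and analyzed by HPLC for glycosides versus aglycons.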

[1] = tested on: Diglycosidase derived from P. multicolor; test: Reactivity toward various isoflavone glycosides (HPLC); format: biochemical, Penicillium multicolor; set-up: glucoside / aglycon: unit not given here; conditions: for aglycon / glucoside: 55 °C, pH 4.0
In short: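 Aglycone liberation was measured by reversed-phase HPLC (260 nm, calibration-curve quantitation) after ethanol extraction at 0, 1, 3 and 6 h. Reactions ran at 55° C, pH 4.0 (20 mM acetate), with each glycoside (from 2 mM methanol stock) and 0.75 AU/mL enzyme solution.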

[2] = 30° C., heat treatment of enzyme no, reaction time 0 h
[3] = 30° C., heat treatment of enzyme no, reaction time 1 h
[4] = 30° C., heat treatment of enzyme no, reaction time 3 h
[5] = 30° C., heat treatment of enzyme no, reaction time 6 h
[6] = 30° C., heat treatment of enzyme yes, reaction time 6 h
[7] = 30 °C, heat treatment of enzyme: no, 0 h
[8] = 30 °C, heat treatment of enzyme: no, 1 h
[9] = 30 °C, heat treatment of enzyme: no, 3 h
[10] = 30 °C, heat treatment of enzyme: no, 6 h
[11] = 30 °C, heat treatment of enzyme: yes, 6 h
[12] = 45° C., heat treatment of enzyme no, reaction time 0 h
[13] = 45° C., heat treatment of enzyme no, reaction time 1 h
[14] = 45° C., heat treatment of enzyme no, reaction time 3 h
[15] = 45° C., heat treatment of enzyme no, reaction time 6 h
[16] = 45° C., heat treatment of enzyme yes, reaction time 6 h
[17] = 45 °C, heat treatment of enzyme: no, 0 h
[18] = 45 °C, heat treatment of enzyme: no, 1 h
[19] = 45 °C, heat treatment of enzyme: no, 3 h
[20] = 45 °C, heat treatment of enzyme: no, 6 h
[21] = 45 °C, heat treatment of enzyme: yes, 6 h
[22] = 55° C., heat treatment of enzyme no, reaction time 0 h
[23] = 55° C., heat treatment of enzyme no, reaction time 1 h
[24] = 55° C., heat treatment of enzyme no, reaction time 3 h
[25] = 55° C., heat treatment of enzyme no, reaction time 6 h
[26] = 55° C., heat treatment of enzyme yes, reaction time 6 h
[27] = 55 °C, heat treatment of enzyme: no, 0 h
[28] = 55 °C, heat treatment of enzyme: no, 1 h
[29] = 55 °C, heat treatment of enzyme: no, 3 h
[30] = 55 °C, heat treatment of enzyme: no, 6 h
[31] = 55 °C, heat treatment of enzyme: yes, 6 h
[32] = 65° C., heat treatment of enzyme no, reaction time 0 h
[33] = 65° C., heat treatment of enzyme no, reaction time 1 h
[34] = 65° C., heat treatment of enzyme no, reaction time 3 h
[35] = 65° C., heat treatment of enzyme no, reaction time 6 h
[36] = 65° C., heat treatment of enzyme yes, reaction time 6 h
[37] = 65 °C, heat treatment of enzyme: no, 0 h
[38] = 65 °C, heat treatment of enzyme: no, 1 h
[39] = 65 °C, heat treatment of enzyme: no, 3 h
[40] = 65 °C, heat treatment of enzyme: no, 6 h
[41] = 65 °C, heat treatment of enzyme: yes, 6 h
[42] = 80° C., heat treatment of enzyme no, reaction time 0 h
[43] = 80° C., heat treatment of enzyme no, reaction time 1 h
[44] = 80° C., heat treatment of enzyme no, reaction time 3 h
[45] = 80° C., heat treatment of enzyme no, reaction time 6 h
[46] = 80° C., heat treatment of enzyme yes, reaction time 6 h
[47] = 80 °C, heat treatment of enzyme: no, 0 h
[48] = 80 °C, heat treatment of enzyme: no, 1 h
[49] = 80 °C, heat treatment of enzyme: no, 3 h
[50] = 80 °C, heat treatment of enzyme: no, 6 h
[51] = 80 °C, heat treatment of enzyme: yes, 6 h

Decomposition efficiency of genistin family in concentrated soybean protein (Crude diglycosidase; [2]): 49.8%
Decomposition efficiency of genistin family in defatted soybean (Crude diglycosidase; [2]): 38.0%
Decomposition efficiency of genistin family in concentrated soybean protein (Crude diglycosidase; [3]): 41.1%
Decomposition efficiency of genistin family in defatted soybean (Crude diglycosidase; [3]): not detected
Decomposition efficiency of genistin family in concentrated soybean protein (Crude diglycosidase; [4]): 30.3%
Decomposition efficiency of genistin family in defatted soybean (Crude diglycosidase; [4]): not detected
Decomposition efficiency of genistin family in concentrated soybean protein (Crude diglycosidase; [5]): 19.7%
Decomposition efficiency of genistin family in defatted soybean (Crude diglycosidase; [5]): 7.6%
Decomposition efficiency of genistin family in concentrated soybean protein (Crude diglycosidase; [6]): 51.8%
Decomposition efficiency of genistin family in defatted soybean (Crude diglycosidase; [6]): not detected
Decomposition efficiency of genistin family in roasted soy flour (Crude diglycosidase; [7]): 49.7%
Decomposition efficiency of genistin family in soymilk (Crude diglycosidase; [7]): 30.7%
Decomposition efficiency of genistin family in roasted soy flour (Crude diglycosidase; [8]): 25.7%
Decomposition efficiency of genistin family in soymilk (Crude diglycosidase; [8]): not detected
Decomposition efficiency of genistin family in roasted soy flour (Crude diglycosidase; [9]): 12.0%
Decomposition efficiency of genistin family in soymilk (Crude diglycosidase; [9]): not detected
Decomposition efficiency of genistin family in roasted soy flour (Crude diglycosidase; [10]): 5.5%
Decomposition efficiency of genistin family in soymilk (Crude diglycosidase; [10]): not detected
Decomposition efficiency of genistin family in roasted soy flour (Crude diglycosidase; [11]): 50.3%
Decomposition efficiency of genistin family in soymilk (Crude diglycosidase; [11]): 31.2%
Decomposition efficiency of genistin family in concentrated soybean protein (Crude diglycosidase; [12]): 49.7%
Decomposition efficiency of genistin family in defatted soybean (Crude diglycosidase; [12]): 37.0%
Decomposition efficiency of genistin family in concentrated soybean protein (Crude diglycosidase; [13]): 22.2%
Decomposition efficiency of genistin family in defatted soybean (Crude diglycosidase; [13]): 0.9%
Decomposition efficiency of genistin family in concentrated soybean protein (Crude diglycosidase; [14]): 15.6%
Decomposition efficiency of genistin family in defatted soybean (Crude diglycosidase; [14]): 1.0%
Decomposition efficiency of genistin family in concentrated soybean protein (Crude diglycosidase; [15]): 5.3%
Decomposition efficiency of genistin family in defatted soybean (Crude diglycosidase; [15]): 1.0%
Decomposition efficiency of genistin family in concentrated soybean protein (Crude diglycosidase; [16]): 54.5%
Decomposition efficiency of genistin family in defatted soybean (Crude diglycosidase; [16]): 1.3%
Decomposition efficiency of genistin family in roasted soy flour (Crude diglycosidase; [17]): 50.2%
Decomposition efficiency of genistin family in soymilk (Crude diglycosidase; [17]): 31.0%
Decomposition efficiency of genistin family in roasted soy flour (Crude diglycosidase; [18]): 3.7%
Decomposition efficiency of genistin family in soymilk (Crude diglycosidase; [18]): not detected
Decomposition efficiency of genistin family in roasted soy flour (Crude diglycosidase; [19]): 5.6%
Decomposition efficiency of genistin family in soymilk (Crude diglycosidase; [19]): not detected
Decomposition efficiency of genistin family in roasted soy flour (Crude diglycosidase; [20]): 1.2%
Decomposition efficiency of genistin family in soymilk (Crude diglycosidase; [20]): not detected
Decomposition efficiency of genistin family in roasted soy flour (Crude diglycosidase; [21]): 51.7%
Decomposition efficiency of genistin family in soymilk (Crude diglycosidase; [21]): 34.4%
Decomposition efficiency of genistin family in concentrated soybean protein (Crude diglycosidase; [22]): 50.1%
Decomposition efficiency of genistin family in defatted soybean (Crude diglycosidase; [22]): 38.0%
Decomposition efficiency of genistin family in concentrated soybean protein (Crude diglycosidase; [23]): 7.0%
Decomposition efficiency of genistin family in defatted soybean (Crude diglycosidase; [23]): 0.0%
Decomposition efficiency of genistin family in concentrated soybean protein (Crude diglycosidase; [24]): 0.8%
Decomposition efficiency of genistin family in defatted soybean (Crude diglycosidase; [24]): 0.0%
Decomposition efficiency of genistin family in concentrated soybean protein (Crude diglycosidase; [25]): not detected
Decomposition efficiency of genistin family in defatted soybean (Crude diglycosidase; [25]): 0.0%
Decomposition efficiency of genistin family in concentrated soybean protein (Crude diglycosidase; [26]): 52.3%
Decomposition efficiency of genistin family in defatted soybean (Crude diglycosidase; [26]): 0.0%
Decomposition efficiency of genistin family in roasted soy flour (Crude diglycosidase; [27]): 49.7%
Decomposition efficiency of genistin family in soymilk (Crude diglycosidase; [27]): 31.6%
Decomposition efficiency of genistin family in roasted soy flour (Crude diglycosidase; [28]): 1.2%
Decomposition efficiency of genistin family in soymilk (Crude diglycosidase; [28]): not detected
Decomposition efficiency of genistin family in roasted soy flour (Crude diglycosidase; [29]): not detected
Decomposition efficiency of genistin family in soymilk (Crude diglycosidase; [29]): not detected
Decomposition efficiency of genistin family in roasted soy flour (Crude diglycosidase; [30]): not detected
Decomposition efficiency of genistin family in soymilk (Crude diglycosidase; [30]): not detected
Decomposition efficiency of genistin family in roasted soy flour (Crude diglycosidase; [31]): 54.0%
Decomposition efficiency of genistin family in soymilk (Crude diglycosidase; [31]): 37.4%
Decomposition efficiency of genistin family in concentrated soybean protein (Crude diglycosidase; [32]): 49.8%
Decomposition efficiency of genistin family in defatted soybean (Crude diglycosidase; [32]): 37.0%
Decomposition efficiency of genistin family in concentrated soybean protein (Crude diglycosidase; [33]): not detected
Decomposition efficiency of genistin family in defatted soybean (Crude diglycosidase; [33]): 0.0%
Decomposition efficiency of genistin family in concentrated soybean protein (Crude diglycosidase; [34]): not detected
Decomposition efficiency of genistin family in defatted soybean (Crude diglycosidase; [34]): 1.8%
Decomposition efficiency of genistin family in concentrated soybean protein (Crude diglycosidase; [35]): not detected
Decomposition efficiency of genistin family in defatted soybean (Crude diglycosidase; [35]): 3.3%
Decomposition efficiency of genistin family in concentrated soybean protein (Crude diglycosidase; [36]): 50.8%
Decomposition efficiency of genistin family in defatted soybean (Crude diglycosidase; [36]): 28.2%
Decomposition efficiency of genistin family in roasted soy flour (Crude diglycosidase; [37]): 49.7%
Decomposition efficiency of genistin family in soymilk (Crude diglycosidase; [37]): 30.7%
Decomposition efficiency of genistin family in roasted soy flour (Crude diglycosidase; [38]): not detected
Decomposition efficiency of genistin family in soymilk (Crude diglycosidase; [38]): not detected
Decomposition efficiency of genistin family in roasted soy flour (Crude diglycosidase; [39]): not detected
Decomposition efficiency of genistin family in soymilk (Crude diglycosidase; [39]): not detected
Decomposition efficiency of genistin family in roasted soy flour (Crude diglycosidase; [40]): not detected
Decomposition efficiency of genistin family in soymilk (Crude diglycosidase; [40]): not detected
Decomposition efficiency of genistin family in roasted soy flour (Crude diglycosidase; [41]): 50.7%
Decomposition efficiency of genistin family in soymilk (Crude diglycosidase; [41]): 44.4%
Decomposition efficiency of genistin family in concentrated soybean protein (Crude diglycosidase; [42]): 49.7%
Decomposition efficiency of genistin family in defatted soybean (Crude diglycosidase; [42]): 37.0%
Decomposition efficiency of genistin family in concentrated soybean protein (Crude diglycosidase; [43]): 29.6%
Decomposition efficiency of genistin family in defatted soybean (Crude diglycosidase; [43]): 9.6%
Decomposition efficiency of genistin family in concentrated soybean protein (Crude diglycosidase; [44]): 30.3%
Decomposition efficiency of genistin family in defatted soybean (Crude diglycosidase; [44]): 22.1%
Decomposition efficiency of genistin family in concentrated soybean protein (Crude diglycosidase; [45]): 32.3%
Decomposition efficiency of genistin family in defatted soybean (Crude diglycosidase; [45]): 35.3%
Decomposition efficiency of genistin family in concentrated soybean protein (Crude diglycosidase; [46]): 51.9%
Decomposition efficiency of genistin family in defatted soybean (Crude diglycosidase; [46]): 57.8%
Decomposition efficiency of genistin family in roasted soy flour (Crude diglycosidase; [47]): 50.2%
Decomposition efficiency of genistin family in soymilk (Crude diglycosidase; [47]): 31.0%
Decomposition efficiency of genistin family in roasted soy flour (Crude diglycosidase; [48]): 7.8%
Decomposition efficiency of genistin family in soymilk (Crude diglycosidase; [48]): 10.6%
Decomposition efficiency of genistin family in roasted soy flour (Crude diglycosidase; [49]): 9.1%
Decomposition efficiency of genistin family in soymilk (Crude diglycosidase; [49]): 24.3%
Decomposition efficiency of genistin family in roasted soy flour (Crude diglycosidase; [50]): 18.4%
Decomposition efficiency of genistin family in soymilk (Crude diglycosidase; [50]): 43.9%
Decomposition efficiency of genistin family in roasted soy flour (Crude diglycosidase; [51]): 52.2%
Decomposition efficiency of genistin family in soymilk (Crude diglycosidase; [51]): 64.5%
aglycon ([1]; Reaction time 0 h): 0
glucoside ([1]; Reaction time 0 h): 100
aglycon ([1]; Reaction time 1 h): 0
glucoside ([1]; Reaction time 1 h): 100
aglycon ([1]; Reaction time 3 h): 0
glucoside ([1]; Reaction time 3 h): 100
aglycon ([1]; Reaction time 6 h): 0
glucoside ([1]; Reaction time 6 h): 100
efficiency of decomposing by diglycosidase with combined use of β-glucosidase ([1]; combined use of β-glucosidase in addition to the enzyme): further enhanced
SMILES: O=c1c(-c2ccc(O)cc2)coc2cc(O[C@@H]3O[C@H](CO)[C@@H](O)[C@H](O)[C@H]3O)cc(O)c12 [genistin]
